The target in one test is D(3) dopamine receptor (Homo sapiens, UniProt P35462). In words: DRUGMATRIX: Dopamine D3 radioligand binding (ligand: [3H] Spiperone). In kind it is cell membranes, CHO, Membrane.
The nature of test [1]: DRUGMATRIX: GABAA, Flunitrazepam, Central radioligand binding (ligand: [3H] Flunitrazepam). In kind it is cell membranes, Rattus norvegicus, Wistar, Brain, Membrane. Particulars: Not Active = under 50% inhibition at 10 µM.
In test [2] the target is T1, Polyunsaturated fatty acid lipoxygenase ALOX15 (Oryctolagus cuniculus, UniProt P12530).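 Also: inhibition of 15-lipoxygenase enzyme activity measured with linoleic acid as the substrate; in other assays of this panel Not Active means under 50% inhibition at 10 µM.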
T1 sequence (P12530 whole entry): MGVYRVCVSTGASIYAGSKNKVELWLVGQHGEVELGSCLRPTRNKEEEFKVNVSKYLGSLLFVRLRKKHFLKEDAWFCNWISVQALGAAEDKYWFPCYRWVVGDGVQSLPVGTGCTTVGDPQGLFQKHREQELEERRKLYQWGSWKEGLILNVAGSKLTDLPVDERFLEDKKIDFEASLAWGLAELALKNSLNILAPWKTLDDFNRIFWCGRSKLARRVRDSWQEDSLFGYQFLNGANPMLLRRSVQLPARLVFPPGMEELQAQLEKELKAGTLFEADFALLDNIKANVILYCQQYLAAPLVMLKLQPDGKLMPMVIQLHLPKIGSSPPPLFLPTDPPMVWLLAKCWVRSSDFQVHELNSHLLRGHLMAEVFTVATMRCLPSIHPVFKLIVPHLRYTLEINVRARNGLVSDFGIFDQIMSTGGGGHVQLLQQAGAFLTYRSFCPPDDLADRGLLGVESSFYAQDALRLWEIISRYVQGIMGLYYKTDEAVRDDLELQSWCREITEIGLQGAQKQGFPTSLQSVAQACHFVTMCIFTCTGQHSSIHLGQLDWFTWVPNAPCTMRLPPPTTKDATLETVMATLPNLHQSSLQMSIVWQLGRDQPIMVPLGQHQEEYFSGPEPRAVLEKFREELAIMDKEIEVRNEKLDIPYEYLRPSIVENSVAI
Description: biochemical. It is filed as tissue-based, Reticulocytes. Particulars: reticulocytes.

For test [3], the target named is Mitogen-activated protein kinase 14 (Homo sapiens, UniProt Q16539). The arrangement: species or system Escherichia coli.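 Also: inhibition of p38alpha enzyme activity in a biochemical kinase assay, with myelin basic protein serving as substrate; in other assays of this panel Not Active means under 50% inhibition at 10 µM.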
Test [4] deals with T2, Receptor-type tyrosine-protein phosphatase C (Homo sapiens, UniProt P08575).
T2 sequence (P08575 whole entry): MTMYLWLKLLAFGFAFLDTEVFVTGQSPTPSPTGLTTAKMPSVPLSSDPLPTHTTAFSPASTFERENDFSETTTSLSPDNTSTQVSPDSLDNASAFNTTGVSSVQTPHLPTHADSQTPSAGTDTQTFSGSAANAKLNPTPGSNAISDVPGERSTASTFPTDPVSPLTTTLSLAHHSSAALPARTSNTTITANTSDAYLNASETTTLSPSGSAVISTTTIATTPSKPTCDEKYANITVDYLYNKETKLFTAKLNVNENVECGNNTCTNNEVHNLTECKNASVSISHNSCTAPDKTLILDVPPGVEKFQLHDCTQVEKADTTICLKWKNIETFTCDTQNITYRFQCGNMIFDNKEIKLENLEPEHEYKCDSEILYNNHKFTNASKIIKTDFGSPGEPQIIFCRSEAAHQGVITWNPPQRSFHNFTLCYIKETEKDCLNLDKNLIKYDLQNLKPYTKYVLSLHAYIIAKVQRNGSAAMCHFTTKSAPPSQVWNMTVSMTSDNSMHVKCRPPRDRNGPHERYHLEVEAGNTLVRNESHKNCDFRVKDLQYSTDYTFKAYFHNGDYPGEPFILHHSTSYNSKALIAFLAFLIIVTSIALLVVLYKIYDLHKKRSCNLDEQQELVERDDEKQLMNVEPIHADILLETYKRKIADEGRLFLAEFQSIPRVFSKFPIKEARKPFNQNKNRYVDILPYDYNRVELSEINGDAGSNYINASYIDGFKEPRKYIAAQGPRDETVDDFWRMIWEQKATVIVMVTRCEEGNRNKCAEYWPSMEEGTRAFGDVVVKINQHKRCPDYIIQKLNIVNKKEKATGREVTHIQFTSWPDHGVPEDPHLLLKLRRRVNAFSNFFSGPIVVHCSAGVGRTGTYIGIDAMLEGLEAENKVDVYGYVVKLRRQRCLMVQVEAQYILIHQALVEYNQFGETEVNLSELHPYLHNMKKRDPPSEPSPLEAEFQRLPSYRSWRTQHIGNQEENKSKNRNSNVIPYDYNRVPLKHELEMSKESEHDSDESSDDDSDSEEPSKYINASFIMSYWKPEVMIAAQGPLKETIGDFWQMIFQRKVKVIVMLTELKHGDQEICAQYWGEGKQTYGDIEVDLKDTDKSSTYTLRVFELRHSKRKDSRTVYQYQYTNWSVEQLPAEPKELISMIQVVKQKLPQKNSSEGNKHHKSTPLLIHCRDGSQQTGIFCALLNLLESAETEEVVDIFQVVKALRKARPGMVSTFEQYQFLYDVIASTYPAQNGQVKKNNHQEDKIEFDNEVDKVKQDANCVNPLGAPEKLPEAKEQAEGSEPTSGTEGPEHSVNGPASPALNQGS
The arrangement: species or system Escherichia coli.

The target in the next test is T3, Estrogen receptor (Homo sapiens, UniProt P03372). Also: in other assays of this panel Not Active means under 50% inhibition at 10 µM.
T3 sequence (P03372 whole entry): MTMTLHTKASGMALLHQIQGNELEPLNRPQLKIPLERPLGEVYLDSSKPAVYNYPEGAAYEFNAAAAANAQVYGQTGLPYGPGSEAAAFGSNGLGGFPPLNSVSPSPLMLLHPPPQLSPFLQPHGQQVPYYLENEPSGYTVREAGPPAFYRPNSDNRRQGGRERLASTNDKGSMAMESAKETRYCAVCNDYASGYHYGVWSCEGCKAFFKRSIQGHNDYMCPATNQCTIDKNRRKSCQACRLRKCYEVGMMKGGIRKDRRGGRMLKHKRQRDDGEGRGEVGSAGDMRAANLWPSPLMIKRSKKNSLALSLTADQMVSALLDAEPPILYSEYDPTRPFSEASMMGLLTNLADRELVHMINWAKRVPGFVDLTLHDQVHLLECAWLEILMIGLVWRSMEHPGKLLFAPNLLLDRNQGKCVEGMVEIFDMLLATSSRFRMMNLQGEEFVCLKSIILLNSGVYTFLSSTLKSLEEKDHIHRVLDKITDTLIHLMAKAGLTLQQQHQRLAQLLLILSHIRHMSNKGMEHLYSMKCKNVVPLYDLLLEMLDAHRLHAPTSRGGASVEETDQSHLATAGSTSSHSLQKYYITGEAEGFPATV
Particulars: sf9.

Chain of Mitogen-activated protein kinase 14 (Q16539 whole entry): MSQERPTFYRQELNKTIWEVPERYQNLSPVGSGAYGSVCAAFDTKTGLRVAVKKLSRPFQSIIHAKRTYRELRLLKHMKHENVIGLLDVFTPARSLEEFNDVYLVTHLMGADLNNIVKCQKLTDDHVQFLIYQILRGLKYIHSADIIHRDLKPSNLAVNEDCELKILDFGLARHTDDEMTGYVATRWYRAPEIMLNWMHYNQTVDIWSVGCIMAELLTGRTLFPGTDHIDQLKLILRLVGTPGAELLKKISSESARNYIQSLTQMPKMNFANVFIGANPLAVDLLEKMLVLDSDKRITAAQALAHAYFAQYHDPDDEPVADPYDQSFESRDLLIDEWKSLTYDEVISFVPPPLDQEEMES
Chain of D(3) dopamine receptor (P35462 whole entry): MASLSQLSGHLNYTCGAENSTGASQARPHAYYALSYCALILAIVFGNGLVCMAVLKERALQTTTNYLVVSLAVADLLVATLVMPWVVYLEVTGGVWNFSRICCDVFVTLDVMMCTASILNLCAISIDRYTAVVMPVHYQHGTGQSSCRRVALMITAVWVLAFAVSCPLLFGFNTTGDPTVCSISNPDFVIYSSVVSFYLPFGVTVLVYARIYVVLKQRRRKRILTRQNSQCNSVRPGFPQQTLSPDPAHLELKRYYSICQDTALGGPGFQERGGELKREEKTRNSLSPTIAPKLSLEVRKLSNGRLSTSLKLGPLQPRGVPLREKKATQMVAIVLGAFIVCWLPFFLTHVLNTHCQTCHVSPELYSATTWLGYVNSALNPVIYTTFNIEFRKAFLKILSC

Consider `C[C@H](C(=O)O)c1ccc2oc(-c3ccc(F)cc3)nc2c1` [FLUNOXAPROFEN], for which the IC50 entry (on D(3) dopamine receptor (cho); in test [1]; in test [2]; in test [3]; in test [4]; on Estrogen receptor) was “Not Active” in each case. The Ki (commonly the equilibrium dissociation constant of an inhibitor or competing ligand from its target) in test [1] is on record as “Not Active”.

Consider COPPER(II) OXIDE, for which the IC50 result (on D(3) dopamine receptor (cho); in test [1]; in test [2]; in test [3]; in test [4]; against Estrogen receptor) was “Not Active” each time. The Ki entry (at D(3) dopamine receptor (cho); in test [1]; in test [2]; in test [3]; in test [4]; on Estrogen receptor) was “Not Active” throughout.

Turning to `O=C1c2ccccc2C(=O)C1c1ccccc1` [PHENINDIONE], the IC50 result (on D(3) dopamine receptor (cho); in test [1]; in test [2]; in test [3]; in test [4]; on Estrogen receptor) was “Not Active” in each case. Besides, in test [1], the Ki entry is given as “Not Active”.

`CCN1C[C@]2(COC)[C@H](O)C[C@H](OC)[C@@]34[C@@H]5C[C@@]6(O)[C@H](OC(=O)c7ccccc7)[C@@H]5[C@@](OC(C)=O)([C@@H]([C@H](OC)[C@H]23)[C@@H]14)[C@@H](O)[C@@H]6OC` [ACONITINE]: the IC50 entry (on D(3) dopamine receptor (cho); in test [1]; in test [2]; in test [3]; in test [4]; against Estrogen receptor) was “Not Active” throughout. Also, the inhibition constant (Ki) result in test [1] is “Not Active”.

`O=C(O)COC(=O)Cc1ccccc1Nc1c(Cl)cccc1Cl` [ACECLOFENAC]: the half-maximal inhibitory concentration (IC50) result (at D(3) dopamine receptor (cho); in test [1]; in test [2]; in test [3]; in test [4]; on Estrogen receptor) was “Not Active” each time. In addition, in test [1], the inhibitory constant (Ki) entry is “Not Active”.

For the compound `CC(C)(C#N)c1cc(Cn2cncn2)cc(C(C)(C)C#N)c1` [ANASTROZOLE], the concentration for half-maximal inhibition (IC50) result (on D(3) dopamine receptor (cho); in test [1]; in test [2]; in test [3]; in test [4]) was “Not Active” in each case. Also, the Ki result in test [1] is on record as “Not Active”.

On to `CCN1CCN(c2cc3c(cc2F)c(=O)c(C(=O)O)cn3C2CC2)CC1` [ENROFLOXACIN], for which the IC50 result (on D(3) dopamine receptor (cho); in test [1]; in test [2]; in test [3]; in test [4]) was “Not Active” each time. The Ki result in test [1] is “Not Active”.

Take `CCN(CCO)CCCC(C)Nc1ccnc2cc(Cl)ccc12` (configuration not stated) [HYDROXYCHLOROQUINE]: the IC50 entry (at D(3) dopamine receptor (cho); in test [1]; in test [2]; in test [3]; in test [4]) was “Not Active” each time. Also, the inhibition constant Ki entry in test [1] is given as “Not Active”.

`Oc1ccccc1` [PHENOL]: the IC50 entry (on D(3) dopamine receptor (cho); in test [1]; in test [2]; in test [3]; in test [4]) was “Not Active” throughout. Moreover, in test [1], the Ki result is “Not Active”.

With `OC[C@H]1O[C@@H]2O[C@H]3[C@H](O)[C@@H](O)[C@@H](O[C@H]4[C@H](O)[C@@H](O)[C@@H](O[C@H]5[C@H](O)[C@@H](O)[C@@H](O[C@H]6[C@H](O)[C@@H](O)[C@@H](O[C@H]7[C@H](O)[C@@H](O)[C@@H](O[C@H]8[C@H](O)[C@@H](O)[C@@H](O[C@H]1[C@H](O)[C@H]2O)O[C@@H]8CO)O[C@@H]7CO)O[C@@H]6CO)O[C@@H]5CO)O[C@@H]4CO)O[C@@H]3CO` [BETADEX], the IC50 entry (on D(3) dopamine receptor (cho); in test [1]; in test [2]; in test [3]; in test [4]) was “Not Active” in each case. Moreover, in test [1], the inhibition constant Ki result is reported as “Not Active”.

For the compound `COc1ccc(Cl)cc1C(=O)NCCc1ccc(S(=O)(=O)NC(=O)NC2CCCCC2)cc1` [GLYBURIDE], the IC50 entry (at D(3) dopamine receptor (cho); in test [1]; in test [2]; in test [3]; in test [4]) was “Not Active” throughout. The Ki entry in test [1] was “Not Active”.

For the compound `COC(=O)Nc1nc2ccc(Sc3ccccc3)cc2[nH]1` [FENBENDAZOLE], the IC50 – broadly, the midpoint of a concentration-inhibition curve – at D(3) dopamine receptor (cho) was “Not Active”; in test [1], “Not Active”; in test [2] it was “Not Active”; in test [3] (read-out: IC50) it was 3190 nM; in test [4] it was “Not Active”. Further, the inhibition constant Ki result in test [1] is recorded as “Not Active”.

In the case of `C=CCO` [ALLYL ALCOHOL], the IC50 result (at D(3) dopamine receptor (cho); in test [1]; in test [2]; in test [3]; in test [4]) was “Not Active” each time. Moreover, in test [1], the Ki entry is listed as “Not Active”.

As for `Cc1ccnc2c1NC(=O)c1cccnc1N2C1CC1` [NEVIRAPINE], the IC50 result (on D(3) dopamine receptor (cho); in test [1]; in test [2]; in test [3]; in test [4]) was “Not Active” in each case. Moreover, in test [1], the inhibition constant Ki entry was “Not Active”.

Consider `NCC(CC(=O)O)c1ccc(Cl)cc1` (configuration not stated) [BACLOFEN], for which the IC50 entry (on D(3) dopamine receptor (cho); in test [1]; in test [2]; in test [3]; in test [4]) was “Not Active” throughout. Also, in test [1], the Ki entry is reported as “Not Active”.

Consider `CC(CN1c2ccccc2Sc2ccccc21)N(C)C` (configuration not stated) [PROMETHAZINE], for which the IC50 was 559 nM at D(3) dopamine receptor (read-out: IC50); “Not Active” in test [1]; “Not Active” in test [2]; “Not Active” in test [3]; “Not Active” in test [4]. Besides, the Ki on D(3) dopamine receptor (read-out: Ki) was 190 nM; in test [1], “Not Active”.
